How the values were obtained:
Assay in all cases: 3D cell proliferation inhibition assay (CellTiter-Glo 3D)
Assay type in all cases: cell-based
H358 = conditions: Homo sapiens, NCI-H358, 120 h; H358 cells, KRAS G12C, 3D culture, 5 days with compound
Description: (§1) This experiment uses the cells listed in the table below to evaluate the inhibitory effects of the compounds on the proliferation of KRAS mutant or KRAS amplified cells.
(§2) On the first day of the experiment, cells that were growing well and had reached 70%-80% confluence were digested, resuspended in culture medium, and the cell density was adjusted to the desired level. In a U-shaped low-attachment 96-well plate (Corning, 7007), 90 µL of cell suspension was added per well, with the cell density as shown in the table above. The cell plate was centrifuged at 2500 rpm for 5 minutes and then placed in an incubator for 24 hours of culture. On the second day, the 20 mM test compound dissolved in DMSO was diluted with DMSO to the first concentration of 2 or 0.2 mM, and then serially diluted in a 5-fold gradient to obtain 9 concentration points, with the control well containing DMSO. The serially diluted compound was then further diluted 20-fold with culture medium. 10 µL of the test compound diluted in culture medium was added to each well of the cell plate. The final concentrations of the compound were 9 points in a 5-fold serial dilution starting from 10 or 1 µM. Cell wells containing 0.5% DMSO were set as vehicle control wells, and wells containing only culture medium and 0.5% DMSO were set as blank control wells. The cell plate was centrifuged at 2000 rpm for 3 minutes and then placed in an incubator for 5 days of culture. On the seventh day, the 96-well cell culture plate was taken out, and 50 µL of the luminescent cell viability detection reagent, CellTiter-Glo® 3D Cell Viability Assay (Promega, G9683), was added to each well. After shaking at room temperature for 25 minutes, the mixture was pipetted up and down to mix, and 100 µL was transferred from each well to a white, opaque-bottom OptiPlate™-96 well plate (PerkinElmer, 6005290). The luminescence signal value was read using a multimode microplate reader (PerkinElmer, EnVision2105).
(§3) The inhibition rate was calculated using the following formula: Inhibition rate = (Luminescence value vehicle control well - Luminescence value test compound)/(Luminescence value vehicle control well - Luminescence value blank control well) × 100%. The IC50 values of the compound inhibitory activity were calculated using Graphpad Prism software. Table 1. Data of inhibitory activity on 3D cell proliferation (unit: nM)

AGS = conditions: Homo sapiens, 120 h; AGS cells, KRAS G12D, 3D culture, 5 days with compound
Description: as §1, §2, §3

AsPC-1 = conditions: Homo sapiens, ASPC1, 120 h; AsPC-1 cells, KRAS G12D, 3D culture, 5 days with compound
Description: as §1, §2, §3

GP2d = conditions: GP2d, 120 h, GP2d cells, KRAS G12D, 3D culture, 5 days with compound
Description: as §1, §2, §3

SW620 = conditions: Homo sapiens, SW-620, 120 h; SW620 cells, KRAS G12V, 3D culture, 5 days with compound
Description: as §1, §2, §3

MKN1 = conditions: Homo sapiens, MKN-1, 120 h; MKN1 cells, KRAS Amp, 3D culture, 5 days with compound
Description: as §1, §2, §3

| IC50 (H358) [nM] | IC50 (SW620) [nM] | IC50 (MKN1) [nM] | Structure (SMILES) | IC50 (AGS) [nM] | IC50 (AsPC-1) [nM] | IC50 (GP2d) [nM] |
| --- | --- | --- | --- | --- | --- | --- |
| 2.78 | 3.4 | 1.3 | N#Cc1c(N)sc2c(F)ccc(-c3c4c(c5cnc(OCC67CCCN6CC(=C(F)F)C7)nc5c3F)COC4)c12 (single isomer, unassigned) [Example 44A] | 5.03 | 8.36 | 2.59 |
|  |  |  | C[C@@H](O)CN1CC2CCC(C1)N2c1nc(OCC2(CN3CCC(=CF)CC3)CC2)nc2c(F)c(-c3ncc(F)c4sc(N)c(C#N)c34)c3c(c12)COC3 [Example 1, 2-amino-7-fluoro-4-(5-fluoro-3-((1-((4-(fluoromethylene)piperidin-1-yl)methyl)cyclopropyl)methoxy)-1-(3-((R)-2-hydroxypropyl)-3,8-diazabicyclo[3.2.1]oct-8-yl)-7,9-dihydrofuro[3,4-f]quinazolin-6-yl)thieno[3,2-c]pyridine-3-carbonitrile] | 1.03 | 4.17 | 0.28 |
|  |  |  | N#Cc1c(N)sc2c(F)cnc(-c3c4c(c5c(N6C7CCC6CNC7)nc(OCC6(CN7CCC(=CF)CC7)CC6)nc5c3F)COC4)c12 [Example 1i, 4-(1-(3,8-diazabicyclo[3.2.1]oct-8-yl)-5-fluoro-3-((1-((4-(fluoromethylene)piperidin-1-yl)methyl)cyclopropyl)methoxy)-7,9-dihydrofuro[3,4-f]quinazolin-6-yl)-2-amino-7-fluorothieno[3,2-c]pyridine-3-carbonitrile] | 1.03 | 5.07 | 0.34 |
|  |  |  | N#Cc1c(N)sc2c(F)ccc(-c3c4c(c5c(N6C7CCC6CNC7)nc(OCC6(CN7CCC(=CF)CC7)CC6)nc5c3F)COC4)c12 [Example 9, 4-(1-(3,8-diazabicyclo[3.2.1]oct-8-yl)-5-fluoro-3-((1-((4-(fluoromethylene)piperidin-1-yl)methyl)cyclopropyl)methoxy)-7,9-dihydrofuro[3,4-f]quinazolin-6-yl)-2-amino-7-fluorobenzo[b]thiophene-3-carbonitrile] | 1.09 | 9.95 | 0.26 |
|  |  | 8.1 | N#Cc1c(N)sc2c(F)ccc(-c3c4c(c5cnc(OCC6(CN7CCC(=CF)CC7)CC6)nc5c3F)COC4)c12 [Example 14, 2-Amino-7-fluoro-4-(5-fluoro-3-((1-((4-(fluoromethylene)piperidin-1-yl)methyl)cyclopropyl)methoxy)-7,9-dihydrofuro[3,4-f]quinazolin-6-yl)benzo[b]thiophene-3-carbonitrile] | 15.1 |  | 5.85 |
|  | 7.9 | 6.9 | N#Cc1c(N)sc2c(F)ccc(-c3c4c(c5cnc(OCC67CCCN6CC(=CF)C7)nc5c3F)COC4)c12 (centres unmarked) [Example 15, 2-Amino-7-fluoro-4-(5-fluoro-3-((2-(fluoromethylene)tetrahydro-1H-pyrrolizin-7a(5H)-yl)methoxy)-7,9-dihydrofuro[3,4-f]quinazolin-6-yl)benzo[b]thiophene-3-carbonitrile] | 9.12 | 14.7 | 1.71 |
|  |  |  | N#Cc1c(N)sc2c(F)cnc(-c3c4c(c5c(N6C7CCC6CNC7)nc(OCC6(CN7CCC(=C(F)F)CC7)CC6)nc5c3F)COC4)c12 [Example 20, 4-(1-(3,8-diazabicyclo[3.2.1]oct-8-yl)-3-((1-((4-(difluoromethylene)piperidin-1-yl)methyl)cyclopropyl)methoxy)-5-fluoro-7,9-dihydrofuro[3,4-f]quinazolin-6-yl)-2-amino-7-fluorothieno[3,2-c]pyridine-3-carbonitrile] | 2.09 | 7.56 | 0.27 |
|  |  |  | N#Cc1c(N)sc2c(F)cnc(-c3c4c(c5c(N6C7CCC6CN(O)C7)nc(OCC6(CN7CCC(=CF)CC7)CC6)nc5c3F)COC4)c12 [Example 22, 2-Amino-7-fluoro-4-(5-fluoro-3-((1-((4-(fluoromethylene)piperidin-1-yl)methyl)cyclopropyl)methoxy)-1-(3-hydroxyl-3,8-diazabicyclo[3.2.1]oct-8-yl)-7,9-dihydrofuro[3,4-f]quinazolin-6-yl)thieno[3,2-c]pyridine-3-carbonitrile] | 1.57 | 4.64 | 0.26 |
|  |  | 13.2 | C=C1CN2CC(=C)CC2(COc2ncc3c4c(c(-c5ccc(F)c6sc(N)c(C#N)c56)c(F)c3n2)COC4)C1 [Example 26, 2-Amino-4-(3-((2,6-dimethylenetetrahydro-1H-pyrrolizin-7a(5H)-yl)methoxy)-5-fluoro-7,9-dihydrofuro[3,4-f]quinazolin-6-yl)-7-fluorobenzo[b]thiophene-3-carbonitrile] |  |  | 9.79 |
| 8.85 | 12.4 | 8.2 | N#Cc1c(N)sc2c(F)ccc(-c3c4c(c5cnc(OCC67CCCN6CC(=C(F)F)C7)nc5c3F)COC4)c12 (centres unmarked) [Example 27, 2-Amino-4-(3-((2-(difluoromethylene)tetrahydro-1H-pyrrolizin-7a(5H)-yl)methoxy)-5-fluoro-7,9-dihydrofuro[3,4-f]quinazolin-6-yl)-7-fluorobenzo[b]thiophene-3-carbonitrile] |  |  | 6.61 |
| 8.04 | 10.1 |  | N#Cc1c(N)sc2c(F)ccc(-c3c4c(c5c(C6CC6)nc(OC[C@@]67CCCN6C[C@H](F)C7)nc5c3F)COC4)c12 [Example 36, 2-Amino-4-(1-cyclopropyl-5-fluoro-3-(((2R,7aS)-2-fluorotetrahydro-1H-pyrrolizin-7a(5H)-yl)methoxy)-7,9-dihydrofuro[3,4-f]quinazolin-6-yl)-7-fluorobenzo[b]thiophene-3-carbonitrile] |  |  |  |
| 4.76 | 12.7 | 4 | N#Cc1c(N)sc2c(F)ccc(-c3c4c(c5cnc(OCC6(CN7CCC(=CF)CC7)CC6)nc5c3Cl)COC4)c12 [Example 39, 2-Amino-4-(5-chloro-3-((1-((4-(fluoromethylene)piperidin-1-yl)methyl)cyclopropyl)methoxy)-7,9-dihydrofuro[3,4-f]quinazolin-6-yl)-7-fluorobenzo[b]thiophene-3-carbonitrile] | 4.07 | 7.65 | 2.95 |
|  |  | 11.1 | N#Cc1c(N)sc2ccc(F)c(-c3c4c(c5cnc(OCC6(CN7CCC(=CF)CC7)CC6)nc5c3F)COC4)c12 [Example 40, 2-Amino-5-fluoro-4-(5-fluoro-3-((1-((4-(fluoromethylene)piperidin-1-yl)methyl)cyclopropyl)methoxy)-7,9-dihydrofuro[3,4-f]quinazolin-6-yl)benzo[b]thiophene-3-carbonitrile] |  |  | 8.4 |
| 6.76 |  |  | C=CC(=O)N1C[C@H](C)N(c2nc(OCC3(CN4CCC(=C(F)F)CC4)CC3)nc3c(F)c(-c4ncc(F)c5sc(N)c(C#N)c45)c4c(c23)COC4)C[C@H]1C [Example 56] |  |  |  |

| Structure (SMILES) | IC50 (H358) [nM] | IC50 (SW620) [nM] | IC50 (MKN1) [nM] | IC50 (AGS) [nM] | IC50 (AsPC-1) [nM] | IC50 (GP2d) [nM] |
| --- | --- | --- | --- | --- | --- | --- |
| C=CC(=O)N1CC2CCC(C1)N2c1nc(OCC2(CN3CCC(=C(F)F)CC3)CC2)nc2c(F)c(-c3ncc(F)c4sc(N)c(C#N)c34)c3c(c12)COC3 [Example 55] | 0.63 |  |  |  |  |  |

Reference: patent publication EP4803523A1, “FUSED HETEROARYL COMPOUND, PREPARATION METHOD THEREFOR, AND USE THEREOF IN MEDICINE” (Jiangsu Hengrui Pharmaceuticals Co., Ltd., priority 2023, dated 2025)
